Each structure is given as a SMILES string.

The series is described as follows: RP, Thermo Scientific Acclaim RSLC 120 C18, 100 × 2.1 mm, 2.2 µm, 30 °C, 0.2 mL/min, estimated dead time 1.1 min; A: 90% water + 10% methanol + 0.01% formic acid + 5 mM ammonium formate, pH 3.61; B: methanol + 0.01% formic acid + 5 mM ammonium formate, pH 3.61; gradient (min/%B) 0/1 1/1 2/39 13/99.9 15/99.9 15.1/1 20.1/1. Conditions: stereoisomer not certain.
Take `CCOP(=S)(OCC)SCS(=O)(=O)C(C)(C)C` [Terbufos sulfone]: the LC retention time is 9.01 min. As for `CCOP(=S)(OCC)SCS(=O)C(C)(C)C` (configuration not stated) [Terbufos-sulfoxide], the LC retention time was 9 min. On to `CCOP(=S)(OCC)SCSC(C)(C)C` [Terbufos], for which the LC retention time was 12.2 min. As to `CCNc1nc(NC(C)(C)C)nc(OC)n1` [Terbumeton], the LC retention time is 9.16 min. `CC(C)(C)NCC(O)c1cc(O)cc(O)c1` (configuration not stated) [Terbutaline]: the LC retention time was 3.11 min. `CC(C)(C)Nc1nc(N)[nH]c(=O)n1` [Terbuthylazine-desethyl-2-hydroxy]: the LC retention time is 3.99 min. The value for `CC(C)(C)Nc1nc(N)nc(Cl)n1` [Terbuthylazine-desethyl] was 7.48 min.

On to `CCNc1nc(Cl)nc(NC(C)(C)C)n1` [Terbuthylazine], for which the LC retention time was 9.36 min. `CCNc1nc(NC(C)(C)C)nc(SC)n1` [Terbutryn]: the LC retention time was 10.2 min. Consider `CC(C)N1CCN(c2ccc(OCC3COC(Cn4cncn4)(c4ccc(Cl)cc4Cl)O3)cc2)CC1` (configuration not stated) [Terconazole], for which the LC retention time is 8.2 min. Take `CC(C)(C)c1ccc(C(O)CCCN2CCC(C(O)(c3ccccc3)c3ccccc3)CC2)cc1` (configuration not stated) [Terfenadine]: the LC retention time was 9.69 min. The value for `Cc1ncc([N+](=O)[O-])n1CCCO` [Ternidazole] was 4.21 min. As to `CC(CC(c1ccccc1)c1ccccc1)NC(C)(C)C` (configuration not stated) [Terodiline], the LC retention time was 7.91 min.

Turning to `CC(C)(C)NCC(O)COc1cccc2c1SCCC2` (configuration not stated) [Tertatolol], the LC retention time was 6.76 min. In the case of `CC12CCC(=O)C=C1CCC1C2CCC2(C)C(OC(=O)c3ccccc3)CCC12` (configuration not stated) [Testosterone benzoate], the LC retention time is 13.8 min. For the compound `CC12CCC(=O)C=C1CCC1C2CCC2(C)C1CCC2(C)O` (stereo not drawn) [Testosterone- 17-alpha-methyl], the LC retention time is 10.4 min. In the case of `CCCCNc1ccc(C(=O)OCCN(C)C)cc1` [Tetracaine], the LC retention time is 6.43 min. As for `COP(=O)(OC)OC(=CCl)c1cc(Cl)c(Cl)cc1Cl` [Tetrachlorvinphos (Stirofos)], the figure is 10.6 min; as for `FC(F)C(F)(F)OCC(Cn1cncn1)c1ccc(Cl)cc1Cl` (configuration not stated) [Tetraconazole], 10.1 min. Consider `CN(C)C1C(=O)C(C(N)=O)=C(O)C2(O)C(=O)C3=C(O)c4c(O)cccc4C(C)(O)C3CC12` (configuration not stated) [Tetracycline], for which the LC retention time is 4.7 min. In the case of `O=S(=O)(c1ccc(Cl)cc1)c1cc(Cl)c(Cl)cc1Cl` [Tetradifon], the LC retention time is 12.2 min. As for `CCCCCCCCCCCCOCCOCCOCCOCCO` [Tetraethylene glycol monododecyl ether], the LC retention time was 13.5 min. Regarding `O=C1NC(=O)C2CC=CCC12` (stereo not drawn) [Tetrahydrophthalimide (cis-) (1.2.3.6-)], the LC retention time is 4.37 min. As for `CC(C)=CC1C(C(=O)OCN2C(=O)C3=C(CCCC3)C2=O)C1(C)C` (configuration not stated) [Tetramethrin], the figure is 12.2 min. Take `O=C1CN=C(C2=CCCCC2)c2cc(Cl)ccc2N1` [Tetrazepam-Nor]: the LC retention time is 10.1 min. As for `CN1C(=O)CN=C(C2=CCCCC2)c2cc(Cl)ccc21` [Tetrazepam], the figure is 10.5 min. The value for `COCCOc1c(OC)cc(Cc2cnc(N)nc2N)cc1OC` [Tetroxoprim] was 4.24 min; that for `c1ccc2c(c1)CCCC2C1=NCCN1` (configuration not stated) [Tetryzoline] was 4.47 min. With `COc1ccc2c3c1OC1C(OC(C)=O)=CCC4C(C2)N(C)CCC314` (configuration not stated) [Thebacon], the LC retention time was 4.47 min.

Regarding `COc1ccsc1CN(C(=O)CCl)c1c(C)cccc1C` [Thenylchlor], the LC retention time was 10.1 min. Regarding `c1ccc2[nH]c(-c3cscn3)nc2c1` [Thiabendazole], the LC retention time is 6.15 min. With `NC(=O)N=C1SCCN1Cc1ccc(Cl)nc1` [Thiacloprid-amide], the LC retention time is 4.83 min.

(Values after the RepoRT retention time repository (doi:10.1021/acs.analchem.2c02893).)
